Measurements: patent publication US6417175B1, “Phosphonocephem derivatives, process for the preparation of the same, and use thereof” (Takeda Chemical Industries, Ltd., priority 1997, dated 2002)

Assay: Transformation into the amino form after incubation in mouse plasma at 37° C. (Experiment 1)
Type: in vitro ADME
Conditions: 10 mg equivalent/ml
Experimental: The lyophilized 7β-[2(Z)-ethoxyimino-2-(5-phosphonoamino-1,2,4-thiadiazol-3-yl)acetamido]-3-[4-(1-methyl-4-pyridinio)-2-thiazolylthio]-3-cephem-4-carboxylate obtained in Working Example 6, was dissolved in mouse plasma to prepare 10 mg equivalent/ml solution. After incubation at 37° C., the transformation rate into 7β-[2(Z)-ethoxyimino-2-(5-amino-1,2,4-thiadiazol-3-yl)acetamido]-3-[4-(1-methyl-4-pyridinio)-2-thiazolylthio]-3-cephem-4-carboxylate (amino form) was measured. The transformation rates in 30 minutes and 1 hour were as follows: […]

With `CCO/N=C(\C(=O)N[C@@H]1C(=O)N2C(C(=O)[O-])=C(Sc3nc(-c4cc[n+](C)cc4)cs3)CS[C@H]12)c1nsc(NP(=O)(O)O)n1` [Working Example 6, 7β-[2(Z)-Ethoxyimino-2-(5-phosphonoamino-1,2,4-thiadiazol-3-yl)acetamido]-3-[4-(1-methyl-4-pyridinio)-2-thiazolylthio]-3-cephem-4-carboxylate] the “transformation rate into amino form” value (30 minutes) was 35% and the “transformation rate into amino form” value (1 hour) was 62%.
